From article PMC6063448, “Antimicrobial activity of linear lipopeptides derived from BP100 towards plant pathogens” (PLoS ONE, 2018)

Assays:
[1] = test system: Fusarium oxysporum f. sp. lycopersici FOL 3 race 2; experiment: MIC, antifungal growth inhibition in microtiter plates (PDB); assay type: cell-based; details: Fo, 22°C, seven days, OD 600 nm, lowest concentration with no growth, given as interval of tested concentrations, three replicates, experiment repeated twice
Procedure, shortened: (§1)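 Conidial suspensions (10^3 conidia/mL P. expansum, 10^4 F. oxysporum) incubated with peptides in PDB with 0.003% chloramphenicol at 22 °C for seven days, OD600 read every 2 h. MIC is the lowest concentration with no growth at the end; triplicates, experiment repeated twice.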

[2] = test system: Penicillium expansum EPS26; experiment: as above; assay type: cell-based; details: Pe, 22°C, seven days, OD 600 nm, lowest concentration with no growth, given as interval of tested concentrations, three replicates, experiment repeated twice
Procedure, shortened: as §1

[3] = test system: defense-related genes in tomato plants; experiment: Induction of defense gene expression of tomato plants (RT-qPCR); assay type: in vivo, tomato cv. Rio Grande; details: for BCB gene expression, fold induction / ERT3 gene expression, fold induction / GluA gene expression, fold induction / Harp gene expression, fold induction / LOX gene expression, fold induction / Osm2 gene expression, fold induction / PPO gene expression, fold induction / PR1 gene expression, fold induction / Sub1 gene expression, fold induction / Tas14 gene expression, fold induction / PinII gene expression, fold induction: tomato leaves sprayed, 24 h, peptides and flg15 125 μM, JA 2.5 mM, ASM 300 mg/L, ΔΔCt relative to actin, above 2 = overexpression; for Defense gene expression in tomato plants (genes overexpressed) / Number of defense-related genes significantly induced: treatment at 125 μM; for Defense gene expression in tomato plants (genes overexpressed): significant overexpression (REST2009)
Description: Seeds of tomato cv. Rio Grande plants were sown in hydroponic seed plugs (rockwool), germinated and grown under controlled greenhouse conditions (25 ± 2°C, 16 h light / 15 ± 2°C, 8 h dark, and 60% RH). Two-week old seedlings (two cotyledons) were transplanted into rockwool plugs (7.5×7.5×6.5 cm, Grodan Iberica). The experimental design consisted of three replicates of three plants per treatment. After two weeks, tomato leaves were sprayed with aqueous solutions of BP100, 9 selected derivatives and flg15 at 125 μM, jasmonic acid at 2.5 mM (Sigma-Aldrich, Sant Louis, Missouri, UE), and acybenzolar-S-methyl at 300 mg/L (Syngenta, Basel, Switzerland), until the run-off point. Water-sprayed plants were used as not treated controls. Twenty-four hours after product application leaf samples were collected and processed to extract RNA for RT-qPCR assays. Plant material was ground to a fine powder in liquid nitrogen with the Tissuelyzer II system (Qiagen). Total RNA was extracted from leaves using PureLink Plant RNA Reagent (Invitrogen, Life Technologies) according to the manufacturer’s manual. The RNA was solubilized in RNAse free water and was routinely subjected to DNAse treatment (Ambion® Turbo DNA-free™, Life Technologies) to remove any contaminant DNA. In each step, the RNA was quantified using a Nanodrop N-2000 spectrophotometer, and its integrity verified by denaturing agarose gel electrophoresis. First-strand of complementary DNA (cDNA) was generated from leave RNA using reverse transcriptase (High Capacity cDNA Reverse Transcription Kit, Invitrogen) according to the manufacturer’s manual.
To test gene defense induction in the treated tomato plants, a qPCR assay was performed. Quantitative PCR was carried out in a fluorometric thermal cycler (qPCR Quant Studio 5, Applied Biosystems) by using a Mix SYBR®Green PCR Master Mix (Applied Biosystems). The total reaction volume of this PCR reaction was 20 μL and the reaction mixture was 1 μL of each primer set at the adequate concentration, 10 μL of MixSyber Green, 6 μL of distilled water and 2 μL of cDNA. Melting curve analysis was performed after amplification to verify amplification specificity. A constitutive gene (actin gene) was used as reference control, and the following genes implicated in plant defense response were analyzed: Pathogenesis-related protein-1 (PR1), Harpin (Harp), Polyphenol oxidase (PPO), Subtilisin-like protease (Sub1), Blue copper binding-protein (BCB), Osmotin (Osm2), Acidic β-1,3 endoglucanase (GluA), Lypoxigenase (LOX), Protein inhibitor II (PinII), Dehydrin (Tas14) and Ethylene response transcription factor (ERT3). […] For each gene system, the concentration of the primer pair was optimized. The primer concentration was 100 nM for all the genes except for the GluA, Harp, PR1 and actin genes which optimized concentration was 300 nM. A calibration curve was prepared by cloning the corresponding DNA in the pSpark cloning vector (Canvax, Córdoba, Spain) according to the manufacturer instructions, which was then used to transform E. coli DH5α by standard procedures. The number of plasmid copies were quantified after purification from E. coli (QIAGEN Iberia, S. L., Madrid, Spain), and appropriate dilutions were prepared to obtain the standard curve. […] Relative quantification of gene expression was done using the ΔΔCt method. Each biological repetition treatment was analyzed in duplicate. The mean of the Ct values obtained were used to estimate the fold change value of the endogenous reference gene (actin) and the target plant defense genes.

Structure (SMILES)	MIC [1] [µM]	MIC [2] [µM]	BCB gene expression, fold induction [3]	ERT3 gene expression, fold induction [3]	GluA gene expression, fold induction [3]	Harp gene expression, fold induction [3]	LOX gene expression, fold induction [3]	Osm2 gene expression, fold induction [3]	PPO gene expression, fold induction [3]	PR1 gene expression, fold induction [3]	Sub1 gene expression, fold induction [3]	Tas14 gene expression, fold induction [3]	Defense gene expression in tomato plants (genes overexpressed) [3]	PinII gene expression, fold induction [3]	Number of defense-related genes significantly induced [3]
CCCC(=O)NCCCC[C@H](NC(=O)[C@@H](NC(=O)[C@H](CCCCN)NC(=O)[C@H](CCCCN)NC(=O)[C@H](Cc1ccccc1)NC(=O)[C@H](CC(C)C)NC(=O)[C@H](CCCCN)NC(=O)[C@H](CCCCN)NC(C)=O)[C@@H](C)CC)C(=O)N[C@@H](CCCCN)C(=O)N[C@@H](Cc1ccc(O)cc1)C(=O)N[C@@H](CC(C)C)C(N)=O [BP387, Ac-KKLFKKIK(COC3H7)KYL-NH2]	0.8 to 1.6	6.2 to 12.5	1.7	0.2	0.7	1.2	0.7	1.0	1.3	0.4	0.8	1.0	none		
CC[C@H](C)[C@H](NC(=O)[C@H](CCCCN)NC(=O)[C@H](CCCCN)NC(=O)[C@H](Cc1ccccc1)NC(=O)[C@H](CC(C)C)NC(=O)[C@H](CCCCN)NC(=O)[C@@H](N)CCCCN)C(=O)N[C@@H](CC(C)C)C(=O)N[C@@H](CCCCN)C(=O)N[C@@H](Cc1ccc(O)cc1)C(=O)N[C@@H](CC(C)C)C(N)=O [BP100, H-Lys-Lys-Leu-Phe-Lys-Lys-Ile-Leu-Lys-Tyr-Leu-NH2]	0.8 to 1.6	>25	0.8	1.0	1.5	0.5	1.2	1.0	3.2	2	1.8	1.4	PPO and PinII	4.9	
CCCC(=O)NCCCC[C@H](NC(=O)[C@H](Cc1ccc(O)cc1)NC(=O)[C@H](CCCCN)NC(=O)[C@H](CC(C)C)NC(=O)[C@@H](NC(=O)[C@H](CCCCN)NC(=O)[C@H](CCCCN)NC(=O)[C@H](Cc1ccccc1)NC(=O)[C@H](CC(C)C)NC(=O)[C@H](CCCCN)NC(=O)[C@H](CCCCN)NC(C)=O)[C@@H](C)CC)C(N)=O [BP390, Ac-KKLFKKILKYK(COC3H7)-NH2]	0.8 to 1.6	6.2 to 12.5	0.6	0.7	0.6	0.5	1.2	3.0	0.9	0.2	0.7	1.0	one gene (Osm2, Tas14 or BCB)	0.2	
CCCCCC(=O)NCCCC[C@H](NC(=O)[C@H](CC(C)C)NC(=O)[C@H](CCCCN)NC(=O)[C@H](CCCCN)NC(C)=O)C(=O)N[C@@H](CCCCN)C(=O)N[C@@H](CCCCN)C(=O)N[C@H](C(=O)N[C@@H](CC(C)C)C(=O)N[C@@H](CCCCN)C(=O)N[C@@H](Cc1ccc(O)cc1)C(=O)N[C@@H](CC(C)C)C(N)=O)[C@@H](C)CC [BP371, Ac-KKLK(COC5H11)KKILKYL-NH2]	0.8 to 1.6	3.1 to 6.2	1.0	0.9	0.5	0.9	1.1	0.9	0.6	0.7	0.8	0.7		1.7	
CCCCCC(=O)NCCCC[C@H](NC(=O)[C@H](Cc1ccc(O)cc1)NC(=O)[C@H](CCCCN)NC(=O)[C@H](CC(C)C)NC(=O)[C@@H](NC(=O)[C@H](CCCCN)NC(=O)[C@H](CCCCN)NC(=O)[C@H](Cc1ccccc1)NC(=O)[C@H](CC(C)C)NC(=O)[C@H](CCCCN)NC(=O)[C@H](CCCCN)NC(C)=O)[C@@H](C)CC)C(N)=O [BP378, Ac-KKLFKKILKYK(COC5H11)-NH2]	0.8 to 1.6	3.1 to 6.2	1.3	1.0	0.6	1.2	1.5	2.9	1.7	2.0	0.9	3.5	PinII, Osm2 and Tas14	5.8	3
CCCC(=O)NCCCC[C@H](NC(=O)[C@H](CCCCN)NC(C)=O)C(=O)N[C@@H](CC(C)C)C(=O)N[C@@H](Cc1ccccc1)C(=O)N[C@@H](CCCCN)C(=O)N[C@@H](CCCCN)C(=O)N[C@H](C(=O)N[C@@H](CC(C)C)C(=O)N[C@@H](CCCCN)C(=O)N[C@@H](Cc1ccc(O)cc1)C(=O)N[C@@H](CC(C)C)C(N)=O)[C@@H](C)CC [BP381, Ac-KK(COC3H7)LFKKILKYL-NH2]	0.8 to 1.6	1.6 to 3.1	1.2	0.7	0.6	0.7	0.8	2.1	1.3	0.2	0.5	3.4	one gene (Osm2, Tas14 or BCB) and Osm2	0.4	
CCCC(=O)NCCCC[C@H](NC(=O)[C@H](CCCCN)NC(=O)[C@H](CC(C)C)NC(=O)[C@@H](NC(=O)[C@H](CCCCN)NC(=O)[C@H](CCCCN)NC(=O)[C@H](Cc1ccccc1)NC(=O)[C@H](CC(C)C)NC(=O)[C@H](CCCCN)NC(=O)[C@H](CCCCN)NC(C)=O)[C@@H](C)CC)C(=O)N[C@@H](CC(C)C)C(N)=O [BP389, Ac-KKLFKKILKK(COC3H7)L-NH2]	1.6 to 3.1	6.2 to 12.5	2.1	0.1	0.3	0.9	1.2	1.0	0.5	0.3	0.5	0.7	PinII and BCB	2.8	2
